Experimental data taken from patent publication US20200239530A1, “COMPOUNDS AND METHODS OF MODULATING PROTEIN DEGRADATION” (Vividion Therapeutics, Inc., priority 2017, published 2020).

How the values were obtained:
[1] = target: T1, HERC5 E3 ISG15--protein ligase HERC5 (Homo sapiens, UniProt Q9UII4); assay: Cysteine liganding, probe competition; assay type: binding; conditions: for Liganded: HERC5 Res# 994, uniprot Q9UII4
T1 construct: Cells were resuspended in cold PBS on ice and sonicated with a probe sonicator to achieve lysis; endogenous in cells
T1 sequence (Q9UII4 1-1024): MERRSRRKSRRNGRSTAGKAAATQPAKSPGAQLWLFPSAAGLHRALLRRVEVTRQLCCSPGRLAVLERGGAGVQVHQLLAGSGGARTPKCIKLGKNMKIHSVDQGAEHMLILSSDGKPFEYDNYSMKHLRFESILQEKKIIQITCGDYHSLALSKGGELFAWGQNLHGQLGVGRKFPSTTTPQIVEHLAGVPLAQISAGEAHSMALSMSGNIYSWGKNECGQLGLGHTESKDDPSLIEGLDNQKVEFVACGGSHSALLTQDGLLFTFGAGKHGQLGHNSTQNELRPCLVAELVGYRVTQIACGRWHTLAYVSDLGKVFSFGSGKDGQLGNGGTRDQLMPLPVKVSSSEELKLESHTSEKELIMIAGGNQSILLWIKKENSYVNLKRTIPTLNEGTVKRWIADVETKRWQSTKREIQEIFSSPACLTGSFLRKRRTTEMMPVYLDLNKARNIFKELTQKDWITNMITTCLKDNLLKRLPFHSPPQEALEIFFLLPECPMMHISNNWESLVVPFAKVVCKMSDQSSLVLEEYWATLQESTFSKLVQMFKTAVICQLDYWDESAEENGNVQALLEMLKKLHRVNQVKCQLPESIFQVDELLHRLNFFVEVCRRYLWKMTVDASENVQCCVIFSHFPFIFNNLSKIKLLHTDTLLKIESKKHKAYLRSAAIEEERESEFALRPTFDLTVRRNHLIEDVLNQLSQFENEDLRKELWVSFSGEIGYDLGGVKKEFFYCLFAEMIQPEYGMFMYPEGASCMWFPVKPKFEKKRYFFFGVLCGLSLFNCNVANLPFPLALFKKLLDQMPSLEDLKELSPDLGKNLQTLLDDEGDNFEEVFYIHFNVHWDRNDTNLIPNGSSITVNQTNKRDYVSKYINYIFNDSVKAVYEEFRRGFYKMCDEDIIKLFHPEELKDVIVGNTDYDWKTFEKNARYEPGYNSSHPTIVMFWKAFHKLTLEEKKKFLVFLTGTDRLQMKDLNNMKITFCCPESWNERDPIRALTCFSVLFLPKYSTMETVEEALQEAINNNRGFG
Procedure, shortened: (§1)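 Read-out is loss of desthiobiotin iodoacetamide labelling at cysteines, measured on streptavidin-enriched tryptic peptides. Compound preincubation ran 1 hr at 25° C in PBS lysate holding 5 mg/ml proteome before the probe was added.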

[2] = target: T2, IDH2 Isocitrate dehydrogenase (Homo sapiens, UniProt P48735); assay: Cysteine liganding, probe competition; assay type: binding
T2 construct: Cells were resuspended in cold PBS on ice and sonicated with a probe sonicator to achieve lysis; endogenous in cells
T2 sequence (P48735 40-452): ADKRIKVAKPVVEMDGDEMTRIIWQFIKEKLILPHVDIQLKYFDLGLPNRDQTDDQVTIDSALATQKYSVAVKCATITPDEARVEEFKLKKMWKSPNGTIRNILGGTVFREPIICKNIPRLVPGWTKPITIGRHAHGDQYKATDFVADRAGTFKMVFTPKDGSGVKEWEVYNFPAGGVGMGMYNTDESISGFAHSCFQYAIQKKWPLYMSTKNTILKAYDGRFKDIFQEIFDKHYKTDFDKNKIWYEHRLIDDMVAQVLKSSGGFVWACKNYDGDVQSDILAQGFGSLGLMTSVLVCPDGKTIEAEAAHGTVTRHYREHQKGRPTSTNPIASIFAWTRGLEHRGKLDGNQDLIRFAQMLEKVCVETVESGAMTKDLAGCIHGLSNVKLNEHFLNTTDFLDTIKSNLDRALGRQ
Procedure, shortened: as §1

Row | SMILES | Liganded [1] | Liganded ([2]; IDH2 Res# 154, uniprot P48735) | 100 Max ([1]; uniprot Q9UII4) | 100 ave ([1]; uniprot Q9UII4) | 500 Max ([1]; uniprot Q9UII4) | 500 ave ([1]; uniprot Q9UII4) | 100 Max ([2]; uniprot P48735) | 100 ave ([2]; uniprot P48735) | 500 Max ([2]; uniprot P48735) | 500 ave ([2]; uniprot P48735)
1 | COc1ccc2c(c1)CCCN2C(=O)CCl [KB02] | YES | YES | – | – | – | – | – | – | – | –
2 | O=C(CCl)Nc1cc(C(F)(F)F)cc(C(F)(F)F)c1 [KBO3] | YES | – | 83.4 | 83.4 | 96.8 | 96.8 | 63.35 | 43.06 | 73.43 | 70.11
